The values below come from PMC8844075 (Nature Communications, 2022).

In one data set the test system is Y1R. Particulars: cited from earlier work.
A further data set relates to wild-type Y1R / Gi1. Put plainly: BRET Gi1 recruitment assay, wild-type Y1R. Format: cell-based, human. Particulars: result in words.
Data set [1] relates to Gi1 heterotrimer with NPY-bound Y1R. Kind of data set: GTP turnover assay. Format: biochemical, human. As to the method: GTP turnover assay was performed using GTPase-Glo assay kit (Promega)[22]. […] NPY-bound Y1R (4 μM) was mixed with 1 μM Gi1 heterotrimer (containing Gαi produced from E. coli or Sf9 cells) in an assay buffer consisting of 20 mM HEPES pH 8.0, 150 mM NaCl, 0.03% DDM, 0.003% CHS, 100 μM TCEP, 5 μM GDP, and 2.5 μM GTP. After incubation for 3 h, reconstituted GTPase-Glo reagent was added to the sample and incubated for 30 min at room temperature. Then, detection reagent was mixed and incubated for 10 min at room temperature. Luminescence was measured using a FlexStation 3 multi-mode microplate reader (Molecular Devices) and data were analyzed by GraphPad Prism 9.2.0.

The mark [2] stands for this setting: alanine mutants of NPY, ref [10],[26].

Read-outs that look alike come from different tables or passages of the source.

Experimental for wild-type Y1R / Gi1: Forty-eight hours of post-transfection, cells were detached with PBS supplemented with 20 mM EDTA and evenly spread into white 96-well microplates (SPL). […] All BRET data were collected using a Mithras LB940 instrument (Berthold), and graphs were plotted using GraphPad Prism 9.2.0.
each sample represent the mean and S.E.M. (standard error of mean) of n=six independent experiments, respectively. Each circle represents an individual data point from the experiment.

Regarding R33A: R33A mutation of NPY, in the data set with Y1R (setting [2]), the Y1R binding result is “most severe defects in Y1R binding”. As to “NPY-COOH: carboxyl-NPY (NPY-COOH), non-amidated NPY”, the Gi1 recruitment result in the data set with wild-type Y1R / Gi1 is listed as “does not induce recruitment of Gi1”. For “Gi1 (Sf9): purified Gi1 heterotrimer containing Gαi1 produced from Sf9 insect cells”, in data set [1] (GTPase-Glo, 1 μM Gi1, 4 μM NPY-bound Y1R, 3 h, three independent experiments), the “reduced luminescence signal (GTP hydrolytic activity)” value turned out to be 95.1%. As for Y1R, the GTP turnover in data set [1] (1st, Buffer 7216.3) is reported as 7542.9; in data set [1] (2nd, Buffer 7401.3) it was 7352.2; in data set [1] (3rd, Buffer 7365.4), 7960.2. The corresponding values for Gi (sf9) are 2592.3, 2856.7 and 2743.4.

Y36A: Y36A mutation of NPY: the Y1R binding result with Y1R (setting [2]) is “loss of binding to Y1R”. Take R35A: R35A mutation of NPY: in the data set with Y1R (setting [2]), the Y1R binding entry is “most severe defects in Y1R binding”. For Y36F: Y36F mutation of NPY, in the data set with Y1R (NPY mutant, ref [26]), the Y1R binding result was “relatively mild effect on Y1R binding”.
